From publication PMC12527922, “Cocaine chemogenetics blunts drug-seeking by synthetic physiology” (Nature, 2025)
Where “and” joins values, the source holds several entries; their conditions need not be identical. Equal entries are not always repeated.

Columns and labels:
[1] = target: coca-5HT3 (α7(L141G,G175K,Y210F,Y217F)–5HT3) (Homo sapiens, UniProt P36544, G175K/L141G/Y210F/Y217F); assay: Membrane potential assay, coca-5HT3 in HEK293; settings: for Response / Max normalized Response: coca-5HT3; for activation of coca-5HT3: membrane potential assay dose response; for Max normalized Response: ED Fig 3b
Sequence of coca-5HT3 (α7(L141G,G175K,Y210F,Y217F)–5HT3) (P36544 23-224 L141G/G175K/Y210F/Y217F): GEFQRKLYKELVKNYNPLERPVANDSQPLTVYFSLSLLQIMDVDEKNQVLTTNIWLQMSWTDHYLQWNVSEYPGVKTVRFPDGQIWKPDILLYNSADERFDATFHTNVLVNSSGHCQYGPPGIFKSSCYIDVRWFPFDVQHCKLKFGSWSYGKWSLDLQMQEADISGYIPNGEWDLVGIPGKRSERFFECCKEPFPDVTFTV
Sequence of coca-5HT3 (α7(L141G,G175K,Y210F,Y217F)–5HT3) (P23979 242-489, further chain): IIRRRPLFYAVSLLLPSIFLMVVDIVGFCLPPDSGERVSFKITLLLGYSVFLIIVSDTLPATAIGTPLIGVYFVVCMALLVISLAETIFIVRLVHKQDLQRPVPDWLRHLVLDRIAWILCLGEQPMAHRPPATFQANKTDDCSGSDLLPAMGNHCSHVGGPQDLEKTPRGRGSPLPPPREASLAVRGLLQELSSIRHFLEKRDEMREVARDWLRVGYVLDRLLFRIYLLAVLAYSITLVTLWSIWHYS

unmodified α7–5HT3 = target: T1, unmodified α7–5HT3 (UniProt P23979+P36544, M226I/T225I); assay: Membrane potential assay, unmodified α7–5HT3; format: cell-based, human α7 nAChR LBD, mouse 5HT3 IPD
T1 construct: expressed in transfected cells; host or cells: HEK293 (ATCC CRL-1573), pcDNA3.1
T1 sequence (P36544+P23979 fused P36544:T225I/P36544:M226I): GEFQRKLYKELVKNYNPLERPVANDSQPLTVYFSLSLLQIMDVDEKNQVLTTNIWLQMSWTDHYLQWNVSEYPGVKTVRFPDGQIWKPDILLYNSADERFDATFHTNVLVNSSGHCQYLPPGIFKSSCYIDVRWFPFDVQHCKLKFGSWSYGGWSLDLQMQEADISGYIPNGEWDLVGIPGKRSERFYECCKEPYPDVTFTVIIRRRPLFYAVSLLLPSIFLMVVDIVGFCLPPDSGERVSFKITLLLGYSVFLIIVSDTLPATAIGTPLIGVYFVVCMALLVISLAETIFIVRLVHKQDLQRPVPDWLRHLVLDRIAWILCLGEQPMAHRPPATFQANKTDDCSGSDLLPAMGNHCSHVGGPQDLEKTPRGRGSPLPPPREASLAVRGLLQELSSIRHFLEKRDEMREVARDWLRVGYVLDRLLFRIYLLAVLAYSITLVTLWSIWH

[2] = a75HT3, [Nicotine] 0.0457247 uM
[3] = coca5HT3, [Nicotine] 1.37037 uM
[4] = coca5HT3, [Nicotine] 4.11111 uM
[5] = coca5HT3, [Nicotine] 12.3333 uM

Question: With `CN[C@@H](C)Cc1ccccc1` [methamphetamine] as the compound, how does the Response ([1]; conc 0.0137 uM, ED Fig. 2c) read?
Answer: 0.198

Question: What about the Response ([1]; conc 0.123 uM, ED Fig. 2c) of the same compound?
Answer: 0.256

Question: What about the Response ([1]; conc 0.37 uM, ED Fig. 2c) of the same compound?
Answer: 0.136

Question: And the Response ([1]; conc 10 uM, ED Fig. 2c)?
Answer: 0.224

Question: What about the Response ([1]; conc 30 uM, ED Fig. 2c) of the same compound?
Answer: 0.204

Question: What about the “activation of coca-5HT3” value [1] of the same compound?
Answer: did not activate

Question: With `CN1CC[C@]23c4c5ccc(O)c4O[C@H]2[C@@H](O)C=C[C@H]3[C@H]1C5` [morphine] as the compound, how does the Response ([1]; conc 0.0137 uM, ED Fig. 2c) read?
Answer: 0.063

Question: What about the Response ([1]; conc 0.123 uM, ED Fig. 2c) of the same compound?
Answer: 0.114

Question: What about the Response ([1]; conc 0.37 uM, ED Fig. 2c) of the same compound?
Answer: 0.04

Question: And the Response ([1]; conc 10 uM, ED Fig. 2c)?
Answer: 0.069

Question: And the Response ([1]; conc 30 uM, ED Fig. 2c)?
Answer: 0.121

Question: What about the “activation of coca-5HT3” value [1] of the same compound?
Answer: did not activate

Question: Which results are given for `CCCC[N+]1(C)[C@@H]2C[C@@H](OC(=O)[C@H](CO)c3ccccc3)C[C@H]1[C@@H]1O[C@@H]12` (stereo partly shown) [n-Butylscopolamine]?
Answer: Max normalized Response ([1]; conc 0.137 uM): 0.07428; Max normalized Response ([1]; conc 3.7 uM): 0.05731; Max normalized Response ([1]; conc 11.1 uM): 0.07366; Max normalized Response ([1]; conc 33.3 uM): 0.04125; Max normalized Response ([1]; conc 100 uM): 0.03532

Question: `CN1CCC[C@H]1c1cccnc1` [nicotine] was tested. Which “activity at unmutated α7–5HT3 chimeric channel” value (unmodified α7–5HT3) did it give?
Answer: agonist

Question: And the “max response of each dose-response replicate” value (unmodified α7–5HT3; a75HT3, Nicotine, used for normalization)?
Answer: 0.486 (2×) and 0.554 (2×) and 0.608 (2×)

Question: And the “Max normalized response, AVG” value (unmodified α7–5HT3; [2])?
Answer: 0.008293

Question: What about the “Max normalized response, replicates” value (unmodified α7–5HT3; [2]) of the same compound?
Answer: 0 (2×) and 0.02166 (2×) and 0.01151 (2×)

Question: And the “Response, dose-response replicates (DR 1-6)” value (“Response … (DR 1-6)” for short) (unmodified α7–5HT3; [2])?
Answer: 0 (2×) and 0.012 (2×) and 0.007 (2×)

Question: What about the “Max normalized response, AVG” value (unmodified α7–5HT3; a75HT3, [Nicotine] 0.137174 uM) of the same compound?
Answer: 0.001891

Question: What about the “Max normalized response, replicates” value (unmodified α7–5HT3; a75HT3, [Nicotine] 0.137174 uM) of the same compound?
Answer: 0.002058 (2×) and 0.001805 (2×) and 0.001645 (2×)

Question: And the “Response … (DR 1-6)” value (unmodified α7–5HT3; a75HT3, [Nicotine] 0.137174 uM)?
Answer: 0.001

Question: What about the “Max normalized response, AVG” value (unmodified α7–5HT3; a75HT3, [Nicotine] 0.411523 uM) of the same compound?
Answer: 0.009729

Question: And the “Max normalized response, replicates” value (unmodified α7–5HT3; a75HT3, [Nicotine] 0.411523 uM)?
Answer: 0.004115 (2×) and 0.03069 (2×) and 0 (2×)

Question: What about the “Response … (DR 1-6)” value (unmodified α7–5HT3; a75HT3, [Nicotine] 0.411523 uM) of the same compound?
Answer: 0.002 (2×) and 0.017 (2×) and 0 (2×)

Question: And the “Max normalized response, AVG” value (unmodified α7–5HT3; a75HT3, [Nicotine] 1.23457 uM)?
Answer: 0.08187

Question: What about the “Max normalized response, replicates” value (unmodified α7–5HT3; a75HT3, [Nicotine] 1.23457 uM) of the same compound?
Answer: 0.1152 (2×) and 0 (2×) and 0.09704 (2×)

Question: What about the “Response … (DR 1-6)” value (unmodified α7–5HT3; a75HT3, [Nicotine] 1.23457 uM) of the same compound?
Answer: 0.056 (2×) and 0 (2×) and 0.059 (2×)

Question: What about the “Max normalized response, AVG” value (unmodified α7–5HT3; a75HT3, [Nicotine] 3.7037 uM) of the same compound?
Answer: 0.6699

Question: And the “Max normalized response, replicates” value (unmodified α7–5HT3; a75HT3, [Nicotine] 3.7037 uM)?
Answer: 0.8354 (2×) and 0.4874 (2×) and 0.5214 (2×)

Question: What about the “Response … (DR 1-6)” value (unmodified α7–5HT3; a75HT3, [Nicotine] 3.7037 uM) of the same compound?
Answer: 0.406 (2×) and 0.27 (2×) and 0.317 (2×)

Question: And the “Max normalized response, AVG” value (unmodified α7–5HT3; a75HT3, [Nicotine] 11.1111 uM)?
Answer: 1

Question: What about the “Max normalized response, replicates” value (unmodified α7–5HT3; a75HT3, [Nicotine] 11.1111 uM) of the same compound?
Answer: 1

Question: And the “Response … (DR 1-6)” value (unmodified α7–5HT3; a75HT3, [Nicotine] 11.1111 uM)?
Answer: 0.486 (2×) and 0.554 (2×) and 0.608 (2×)

Question: And the “Max normalized response, AVG” value (unmodified α7–5HT3; a75HT3, [Nicotine] 33.3333 uM)?
Answer: 0.8953

Question: What about the “Max normalized response, replicates” value (unmodified α7–5HT3; a75HT3, [Nicotine] 33.3333 uM) of the same compound?
Answer: 0.8436 (2×) and 0.9711 (2×) and 0.9227 (2×)

Question: And the “Response … (DR 1-6)” value (unmodified α7–5HT3; a75HT3, [Nicotine] 33.3333 uM)?
Answer: 0.41 (2×) and 0.538 (2×) and 0.561 (2×)

Question: And the “Max normalized response, AVG” value (unmodified α7–5HT3; a75HT3, [Nicotine] 100 uM)?
Answer: 0.8025

Question: What about the “Max normalized response, replicates” value (unmodified α7–5HT3; a75HT3, [Nicotine] 100 uM) of the same compound?
Answer: 0.9585 (2×) and 0.8503 (2×) and 0.5988

Question: What about the “Response … (DR 1-6)” value (unmodified α7–5HT3; a75HT3, [Nicotine] 100 uM) of the same compound?
Answer: 0.291 and 0.531 (2×) and 0.517 (2×)

Question: And the “reduced potency for coca-5HT3 versus unmutated α7–5HT3” value [1]?
Answer: greater than 300 fold

Question: What about the “max response of each dose-response replicate” value ([1]; coca5HT3, Nicotine, used for normalization) of the same compound?
Answer: 0.477 and 0.607 and 0.383 and 0.555

Question: And the “Max normalized response, AVG” value [1, 3]?
Answer: 0.06271

Question: What about the “Max normalized response, replicates” value [1, 3] of the same compound?
Answer: 0.03243 and 0.1069 and 0.09061 and 0.02089

Question: What about the “Response, dose-response replicates (DR 1-4)” value (shortened to “Response … (DR 1-4)”) [1, 3] of the same compound?
Answer: 0.051 and 0.055 and 0.008 and 0.018

Question: And the “Max normalized response, AVG” value [1, 4]?
Answer: 0.05584

Question: What about the “Max normalized response, replicates” value [1, 4] of the same compound?
Answer: 0.06667 and 0.05451 and 0.03954 and 0.06266

Question: And the “Response … (DR 1-4)” value [1, 4]?
Answer: 0.026 and 0.024 (2×) and 0.037

Question: What about the “Max normalized response, AVG” value [1, 5] of the same compound?
Answer: 0.06127

Question: What about the “Max normalized response, replicates” value [1, 5] of the same compound?
Answer: 0.03964 and 0.07966 and 0.08402 and 0.04178

Question: And the “Response … (DR 1-4)” value [1, 5]?
Answer: 0.038 and 0.051 and 0.016 and 0.022

Question: What about the “Max normalized response, AVG” value ([1]; coca5HT3, [Nicotine] 37 uM) of the same compound?
Answer: 0.1199

Question: And the “Max normalized response, replicates” value ([1]; coca5HT3, [Nicotine] 37 uM)?
Answer: 0.1225 and 0.1426 and 0.196 and 0.01828

Question: What about the “Response … (DR 1-4)” value ([1]; coca5HT3, [Nicotine] 37 uM) of the same compound?
Answer: 0.068 (2×) and 0.119 and 0.007

Question: And the “Max normalized response, AVG” value ([1]; coca5HT3, [Nicotine] 111 uM)?
Answer: 0.2452

Question: And the “Max normalized response, replicates” value ([1]; coca5HT3, [Nicotine] 111 uM)?
Answer: 0.3009 and 0.2537 and 0.374 and 0.05222

Question: What about the “Response … (DR 1-4)” value ([1]; coca5HT3, [Nicotine] 111 uM) of the same compound?
Answer: 0.121 and 0.227 and 0.02 and 0.167

Question: What about the “Max normalized response, AVG” value ([1]; coca5HT3, [Nicotine] 333 uM) of the same compound?
Answer: 0.4535

Question: What about the “Max normalized response, replicates” value ([1]; coca5HT3, [Nicotine] 333 uM) of the same compound?
Answer: 0.5495 and 0.5975 and 0.5157 and 0.1514

Question: What about the “Response … (DR 1-4)” value ([1]; coca5HT3, [Nicotine] 333 uM) of the same compound?
Answer: 0.285 and 0.313 and 0.058 and 0.305

Question: And the “Max normalized response, AVG” value ([1]; coca5HT3, [Nicotine] 1000 uM)?
Answer: 0.6843

Question: What about the “Max normalized response, replicates” value ([1]; coca5HT3, [Nicotine] 1000 uM) of the same compound?
Answer: 0.8198 and 0.7044 and 0.7249 and 0.4883

Question: And the “Response … (DR 1-4)” value ([1]; coca5HT3, [Nicotine] 1000 uM)?
Answer: 0.44 and 0.187 and 0.455

Question: What about the “Max normalized response, AVG” value ([1]; coca5HT3, [Nicotine] 3000 uM) of the same compound?
Answer: 1

Question: What about the “Max normalized response, replicates” value ([1]; coca5HT3, [Nicotine] 3000 uM) of the same compound?
Answer: 1

Question: And the “Response … (DR 1-4)” value ([1]; coca5HT3, [Nicotine] 3000 uM)?
Answer: 0.477 and 0.607 and 0.383 and 0.555

Question: And the Response ([1]; conc 0.0137 uM, ED Fig. 2c)?
Answer: 0.106

Question: What about the Response ([1]; conc 0.123 uM, ED Fig. 2c) of the same compound?
Answer: 0.216

Question: And the Response ([1]; conc 0.37 uM, ED Fig. 2c)?
Answer: 0.045

Question: And the Response ([1]; conc 10 uM, ED Fig. 2c)?
Answer: 0.163

Question: And the Response ([1]; conc 30 uM, ED Fig. 2c)?
Answer: 0.238

Question: Which results are given for `COc1ccc2c3c1O[C@H]1C(=O)CC[C@@]4(O)[C@@H](C2)N(C)CC[C@]314` [oxycodone]?
Answer: Response ([1]; conc 0.0137 uM, ED Fig. 2c): 0.109; Response ([1]; conc 0.123 uM, ED Fig. 2c): 0.086; Response ([1]; conc 0.37 uM, ED Fig. 2c): 0.066; Response ([1]; conc 10 uM, ED Fig. 2c): 0.081; Response ([1]; conc 30 uM, ED Fig. 2c): 0.117; activation of coca-5HT3 [1]: did not activate

Question: ecgonine was tested. Which Response ([1]; conc 0.0137174 uM, ED Fig. 2b) did it give?
Answer: 0.052

Question: What about the Response ([1]; conc 0.123457 uM, ED Fig. 2b) of the same compound?
Answer: 0.065

Question: And the Response ([1]; conc 0.37037 uM, ED Fig. 2b)?
Answer: 0.073

Question: And the Response ([1]; conc 1.11111 uM, ED Fig. 2b)?
Answer: 0.07

Question: What about the Response ([1]; conc 3.33333 uM, ED Fig. 2b) of the same compound?
Answer: 0.053

Question: What about the Response ([1]; conc 10 uM, ED Fig. 2b) of the same compound?
Answer: 0.084

Question: What about the Response ([1]; conc 30 uM, ED Fig. 2b) of the same compound?
Answer: 0.084

Question: And the “activation of coca-5HT3” value [1]?
Answer: not activated
